Data taken from article PMC7356761 (Molecules, 2020).
Where “and” joins values, the source holds several entries; their conditions need not be identical. Identical values can stand only once. Entries after “also recorded” stand apart in the source; their conditions may differ.

Columns and labels:
H1975 tumor = test: Biodistribution in tumor-bearing mice, H1975 tumor; type: in vivo, mouse; details: for effect of CO-1686 pretreatment on accumulation in H1975 tumor: excess dose CO-1686 (30 mg/kg i.p.) 1 h prior
Description: (§1) Male ddY mice (27–30 g, 6 weeks old) and female BALB/c nu/nu mice (12–17 g, 4 weeks old) were purchased from Japan SLC Inc. (Hamamatsu, Japan). The mice were housed in a cage with free access to food and water maintained at a constant temperature (23–25 °C) with a 12 h light/dark cycle. […] The tumor reached palpable size 2- and 3-weeks post-inoculation. Animal experiments were conducted in accordance with laboratory guidelines for the care and use of animals of Kanazawa University. The animal handling protocol was approved by the Kanazawa University Animal Care Committee (approval number: AP-163766). 3.10. Biodistribution Studies Mice were injected intravenously via the lateral tail vein with a saline solution of [^125I]10 (25 kBq, 100 μL) containing 1% tween-80 and 10% ethanol. The ddY mice were sacrificed at 10 min, 1, 4 and 24 h; meanwhile, the tumor-bearing mice were sacrificed at 1 and 4 h post injection. The selected tissues and organs were collected and weighed and their radioactivity was measured using an auto well gamma counter. […] The mice were sacrificed 1 h after the administration of radiotracer. The biodistribution data are expressed as percent injected dose per gram of tissue (% ID/g) along with the SD.

[1] = test system: H1975 cells (L858R/T790M active mutant EGFR); test: Cellular uptake study, H1975; type: cell-based, human
Description: (§2) 3.8. Cellular Uptake Studies
(§3) Then, the cell culture was incubated in a serum-free medium containing [^125I]10 (3.7 kBq/well) for 4 h. The medium from each well was removed and the cells were washed with 1 mL of ice-cold PBS. Finally, all cell fractions were lysed twice with 0.5 mL of 1 M NaOH aqueous solution. The radioactivity of every fraction was determined by an auto well gamma counter. Total cell protein was determined using the Bicinchoninic Acid (BCA) Protein Assay Kit (Nacalai) protocol, which uses bovine serum albumin as a standard reference. […]. All data were expressed as percent dose per milligram of protein (% dose/mg protein) ± SD.

[2] = Partition coefficient, shake-flask n-octanol/phosphate buffer; type: physicochemical; details: n-octanol/0.1 M phosphate buffer pH 7.4, shake-flask
Description: 3.6. Determination of Partition Coefficient
The partition coefficient of [^125I]10 was measured, as previously reported with a slight modification. Briefly, [^125I]10 was added to the mixture of each 3 mL of n-octanol and 0.1 M phosphate buffer (pH 7.4) in a test tube. The test tube was vortexed for 1 min, left at room temperature for 10 min and centrifuged at 3000× g and 4 °C for 5 min. The n-octanol layer (2 mL) was transferred into a new test tube followed by adding 1 mL of new n-octanol and 3 mL of phosphate buffer. The radioactivity of each 1 mL layer, n-octanol and phosphate buffer was measured using an auto well gamma counter (n = 4). The log P value was calculated by the logarithm of the ratio of radioactivity per milliliter (cpm/mL) in n-octanol to that in phosphate buffer and represents mean ± SD.

[3] = In vitro stability in murine plasma; type: in vitro ADME, mouse; details: 37 °C
Description: 3.7. In Vitro Stability Experiments
The plasma was prepared by centrifugation of murine blood at 4 °C for 20 min at […]. The reaction was started by the addition of [^125I]10 (20 μL) in the plasma (180 µL). The mixture was incubated in a shaker at 300 rpm at 37 °C, which was carried out three times. Samples (100 µL) were taken at 0, 1 and 24 h and 100 µL acetonitrile, divided into five portions, was added for deproteinization of the plasma. The samples were left in the fridge for 15 min and then centrifuged at 4 °C for 15 min at […]. The supernatant was filtered through a pore size of 0.45 μm, then analyzed by RP-HPLC with a mobile phase gradient system water (A) and methanol (B), B: 70–100%, for 20 min using a Cosmosil® 5C18 MSII (4.6 ID × 150 mm) column at a flow rate of 1 mL/min. The column temperature was maintained at 40 °C. Radioactivity was measured by an auto well gamma counter.

H3255 tumor = test: Biodistribution in tumor-bearing mice, H3255 tumor; type: in vivo, mouse
Description: as §1

[4] = Biodistribution in normal ddY mice; type: in vivo, mouse
Description: as §1

[5] = test system: H441 cells (wild-type EGFR); test: Cellular uptake study, H441; type: cell-based, human; details: H441, 4 h incubation
Description: as §2, §3

- effect of CO-1686 pretreatment on accumulation in H1975 tumor (H1975 tumor): not inhibited
- effect of CO-1686 pretreatment on accumulation in H1975 tumor (H1975 tumor; listed as [^125I]ICO1686): not reduced
- tumor/blood ratio (H1975 tumor; tumor-bearing mice): approximately 1
- Biodistribution, H1975 tumor (H1975 tumor; tumor-bearing mice, Blocking (1 h), CO-1686 30 mg/kg i.p. 1 h prior): 1.65 (0.64) % ID/g tissue
- Biodistribution, H1975 tumor (H1975 tumor; tumor-bearing mice, i.v., 1 h): 1.77 (0.43) % ID/g tissue
- Biodistribution, H1975 tumor (H1975 tumor; tumor-bearing mice, i.v., 1 h, listed as [^125I]ICO1686): 1.77 ± 0.43 % ID/g tissue
- Biodistribution, H1975 tumor (H1975 tumor; tumor-bearing mice, i.v., 4 h): 0.43 (0.08) % ID/g tissue
- logP [2]: 1.84 ± 0.01
- stability in plasma ([3]; 24 h incubation): purity decreased gradually
- Biodistribution, H3255 tumor (H3255 tumor; Blocking (1 h), CO-1686 30 mg/kg i.p. 1 h prior): 1.47 (0.71) % ID/g tissue
- Biodistribution, H3255 tumor (H3255 tumor; i.v., 1 h): 1.63 (0.23) % ID/g tissue
- Biodistribution, H3255 tumor (H3255 tumor; i.v., 1 h, listed as [^125I]ICO1686): 1.63 ± 0.23 % ID/g tissue
- Biodistribution, H3255 tumor (H3255 tumor; i.v., 4 h): 0.70 (0.13) % ID/g tissue
- radiotracer excreted in feces ([4]; 24 h after injection): ~70%
- Biodistribution, Blood ([4]; i.v., 10 min): 1.06 (0.19) % ID/g tissue
- Biodistribution, Bone ([4]; i.v., 10 min): 1.16 (0.21) % ID/g tissue
- Biodistribution, Brain ([4]; i.v., 10 min): 0.11 (0.02) % ID/g tissue
- Biodistribution, Heart ([4]; i.v., 10 min): 3.11 (0.64) % ID/g tissue
- Biodistribution, Kidney ([4]; i.v., 10 min): 7.48 (1.55) % ID/g tissue
- Biodistribution, Large intestine ([4]; i.v., 10 min): 0.57 (0.04) % ID/g tissue
- Biodistribution, Liver ([4]; i.v., 10 min): 26.69 (0.81) % ID/g tissue
- Biodistribution, Lung ([4]; i.v., 10 min): 4.47 (1.39) % ID/g tissue
- Biodistribution, Muscle ([4]; i.v., 10 min): 1.40 (0.16) % ID/g tissue
- Biodistribution, Pancreas ([4]; i.v., 10 min): 1.93 (0.37) % ID/g tissue
- Biodistribution, Small intestine ([4]; i.v., 10 min): 9.46 (2.19) % ID/g tissue
- Biodistribution, Spleen ([4]; i.v., 10 min): 2.14 (0.50) % ID/g tissue
- Biodistribution, Stomach ([4]; i.v., 10 min): 3.52 (2.70) % ID/organ
- Biodistribution, Blood ([4]; i.v., 1 h): 0.49 (0.05) % ID/g tissue
- Biodistribution, Bone ([4]; i.v., 1 h): 0.50 (0.22) % ID/g tissue
- Biodistribution, Brain ([4]; i.v., 1 h): 0.05 (0.02) % ID/g tissue
- Biodistribution, Heart ([4]; i.v., 1 h): 0.79 (0.13) % ID/g tissue
- Biodistribution, Kidney ([4]; i.v., 1 h): 3.76 (0.40) % ID/g tissue
- Biodistribution, Large intestine ([4]; i.v., 1 h): 0.53 (0.08) % ID/g tissue
- Biodistribution, Liver ([4]; i.v., 1 h): 18.57 (2.72) % ID/g tissue
- Biodistribution, Lung ([4]; i.v., 1 h): 1.33 (0.08) % ID/g tissue
- Biodistribution, Muscle ([4]; i.v., 1 h): 0.44 (0.05) % ID/g tissue
- Biodistribution, Pancreas ([4]; i.v., 1 h): 0.99 (0.26) % ID/g tissue
- Biodistribution, Small intestine ([4]; i.v., 1 h): 23.96 (2.18) % ID/g tissue
- Biodistribution, Spleen ([4]; i.v., 1 h): 0.90 (0.17) % ID/g tissue
- Biodistribution, Stomach ([4]; i.v., 1 h): 5.10 (1.18) % ID/organ
- Biodistribution, Blood ([4]; i.v., 4 h): 0.33 (0.07) % ID/g tissue
- Biodistribution, Bone ([4]; i.v., 4 h): 0.29 (0.11) % ID/g tissue
- Biodistribution, Brain ([4]; i.v., 4 h): 0.03 (0.01) % ID/g tissue
- Biodistribution, Heart ([4]; i.v., 4 h): 0.35 (0.09) % ID/g tissue
- Biodistribution, Kidney ([4]; i.v., 4 h): 2.37 (0.17) % ID/g tissue
- Biodistribution, Liver ([4]; i.v., 4 h): 7.85 (0.92) % ID/g tissue
- Biodistribution, Lung ([4]; i.v., 4 h): 0.86 (0.10) % ID/g tissue
- Biodistribution, Muscle ([4]; i.v., 4 h): 0.13 (0.03) % ID/g tissue
- Biodistribution, Pancreas ([4]; i.v., 4 h): 0.41 (0.03) % ID/g tissue
- Biodistribution, Small intestine ([4]; i.v., 4 h): 9.81 (1.03) % ID/g tissue
- Biodistribution, Spleen ([4]; i.v., 4 h): 0.58 (0.11) % ID/g tissue
- Biodistribution, Stomach ([4]; i.v., 4 h): 1.38 (0.56) % ID/organ
- Biodistribution, Blood ([4]; i.v., 24 h): 0.05 (0.01) % ID/g tissue
- Biodistribution, Bone ([4]; i.v., 24 h): 0.07 (0.05) % ID/g tissue
- Biodistribution, Brain ([4]; i.v., 24 h): 0.01 (0.01) % ID/g tissue
- Biodistribution, Feces ([4]; i.v., 24 h): 69.9 % ID
- Biodistribution, Heart ([4]; i.v., 24 h): 0.09 (0.05) % ID/g tissue
- Biodistribution, Kidney ([4]; i.v., 24 h): 0.25 (0.01) % ID/g tissue
- Biodistribution, Large intestine ([4]; i.v., 24 h): 0.34 (0.08) % ID/g tissue
- Biodistribution, Liver ([4]; i.v., 24 h): 0.80 (0.10) % ID/g tissue
- Biodistribution, Lung ([4]; i.v., 24 h): 0.26 (0.03) % ID/g tissue
- Biodistribution, Muscle ([4]; i.v., 24 h): 0.04 (0.04) % ID/g tissue
- Biodistribution, Pancreas ([4]; i.v., 24 h): 0.10 (0.11) % ID/g tissue
- Biodistribution, Small intestine ([4]; i.v., 24 h): 0.10 (0.01) % ID/g tissue
- Biodistribution, Spleen ([4]; i.v., 24 h): 0.08 (0.04) % ID/g tissue
- Biodistribution, Stomach ([4]; i.v., 24 h): 0.08 (0.02) % ID/organ
- Biodistribution, Urine ([4]; i.v., 24 h): 4.07 (0.83) % ID/g tissue
Compound: C=CC(=O)Nc1cc([125I])cc(Nc2nc(Nc3ccc(N4CCN(C(C)=O)CC4)cc3OC)ncc2C(F)(F)F)c1 [[^125I]10]
- cell uptake ([1]; H1975, 4 h incubation): 101.52 % dose/mg protein
- cell uptake with blocking ([1]; H1975, excess CO-1686 (100 µM)): 45.61 % dose/mg protein
- effect of gefitinib blocking on accumulation ([1]; H1975, gefitinib 100 µM): did not reduce
- stability in plasma ([3]; until 1 h): slightly decomposed; also recorded: hardly decomposed
- Biodistribution, Large intestine ([4]; i.v., 4 h): 53.44 ± 6.73 % ID/g tissue and 53.44 (6.73) % ID/g tissue
- cell uptake [5]: 8.95 % dose/mg protein
